In data set [1] the test system is Mammalian Erythrocyte Micronucleus. Description: In vivo test for clastogenic effects, Mammalian Erythrocyte Micronucleus Test (OECD 474). From the text: In vivo test for clastogenic effects performed on 3,6,7-trimethyl-2,6-octadienenitrile and 3,7-dimethyl-2,6-octadienenitrile under the conditions required by the standard test protocol for Mammalian Erythrocyte Micronucleus Test (OECD 474, OECD web site http://lysander.sourceoecd.org/v1=155221/c1=19/nw=1/rpsv/ij/oecdjournals/1607310x/v1n 4/s39/p1) gave the following results: • 3,6,7-trimethyl-2,6-octadienenitrile: the test was negative (i.e. no perceived toxicity) in the dose range between 200-1200 mg/kg. • 3,7-dimethyl-2,6-octadienenitrile: the test was positive (i.e. perceived toxicity) in the dose range between 500-1250 mg/kg (overlapping the dose range of the invention compound herein above). This ingredient has been banned for its clastogenic effect.

The conditions of data set [2]: reason for ban; cited from earlier work.

As to `CC(=CC#N)CCC(C)=C(C)C` [3,6,7-trimethyl-2,6-octadienenitrile], in data set [1] (E and Z isomers or a mixture thereof), the “Clastogenicity (induction of chromosome-damages)” value is listed as “not clastogenic”. Besides, the “Mammalian Erythrocyte Micronucleus Test result (clastogenic effects)” value in data set [1] (dose range between 200-1200 mg/kg) is reported as “negative”.
For `CC(C)=CCCC(C)=CC#N` [3,7-dimethyl-2,6-octadienenitrile], the “Mammalian Erythrocyte Micronucleus Test result (clastogenic effects)” value in data set [1] (dose range between 500-1250 mg/kg) is given as “positive”. The Mutagenicity entry in data set [2] was “mutagenic”.

The values above are taken from US8313736B2, “Chemically stable ingredients as lemon odorant” (Firmenich SA, priority 2008, dated 2012).
